Converted amounts (≈) assume the structure as drawn. Like-named read-outs stand apart in the source and are kept apart here. Bridge positions count the residues as written; N and C are the ends. Square brackets hold non-standard residues; d marks the D form. Peptide text beside a SMILES is read from it. * marks the point of attachment. dDab = NCC[C@@H](N)C(=O)O; hSer = N[C@@H](CCO)C(=O)O; Octanoyl = CCCCCCCC(=O)*; Dab = NCC[C@H](N)C(=O)O
How the values were obtained:
A. baumannii ATCC 19606 [1] = settings: MIC A. baumannii ATCC 19606 (µg/mL)
[2] = test system: A. baumannii CI Ptyela 100734512:2, PmxR; settings: MIC A. baumannii CI Ptyela 100734512:2, PmxR (µg/mL)
E. coli ATCC 25922 [3] = settings: MIC E. coli ATCC 25922 (µg/mL)
K. pneumoniae ATCC 13883 [4] = settings: MIC K. pneumoniae ATCC 13883 (µg/mL)
[5] = test system: K. pneumoniae CI 138-16357-20362, PmxR; settings: MIC K. pneumoniae CI 138-16357-20362, PmxR (µg/mL)
[6] = test system: K. pneumoniae CI Koprana 100650661:1, PmxR; settings: MIC K. pneumoniae CI Koprana 100650661:1, PmxR (µg/mL)
[7] = test system: P. aeruginosa FADDI-PA070, PmxR; settings: MIC P. aeruginosa FADDI-PA070, PmxR (µg/mL)
[8] = test system: P. aeruginosa PA9704, PmxR; settings: MIC P. aeruginosa PA9704, PmxR (µg/mL)
[9] = test system: S. aureus ATCC 25923, MSSA; settings: MIC S. aureus ATCC 25923, MSSA (µg/mL)
HepG2 = settings: CC50 HepG2 (µM)
E. coli ATCC 25922 [10] = assay: microbe, parasite or virus in culture; assay type: cell-based, Escherichia coli; settings: ATCC 25922, 18 h
Method: (§1) Bacteria were either obtained from American Type Culture Collection (ATCC; Manassas, VA, USA) or independent academic clinical isolate collections, as listed in Table S2. Bacteria were cultured in nutrient broth (NB; Bacto Laboratories, catalog no. 234000) or Muller Hinton broth (MHB; Bacto Laboratories, catalog no. 211443) at 37 °C overnight with shaking (∼180 rpm). A sample of each culture was then diluted 50-fold in fresh MHB and incubated at 37 °C for 1.5–3 h with shaking (∼180 rpm). Compound stock solutions were prepared as 0.64 or 2.56 mg/mL in water. The compounds, at twice the final desired concentration, were serially diluted 2-fold across the wells of 96-well plates (Polystyrene, Corning, catalogue No. 3370). Mid log phase bacterial cultures (after 1.5–3 h incubation) were diluted to a final concentration of 5 × 10^5 colony forming units (CFU)/mL, and 50 μL was added to each well giving a final compound concentration range of 32 μg/mL to 0.015 μg/mL (128–0.06 μg/mL for colistin and polymyxin B against the polymyxin resistant clinical isolates). MICs were determined visually after 18 h of incubation at 37 °C, with the MIC defined as the lowest compound concentration at which no bacterial growth was visible.
(§2) Table S2. Bacterial strains used for Minimum Inhibitory Concentration (MIC) […]
(§3) Organism Strain Strain description Strain Source
(§4) Escherichia coli ATCC 25922 FDA strain Seattle 1946 ATCC
(§5) Klebsiella pneumoniae ATCC 13883 Control strain ATCC
(§6) Klebsiella pneumoniae ATCC 700603 Multi-drug resistant ATCC
(§7) Klebsiella pneumoniae BAA-2146 Metallo-beta-lactamase- ATCC
(§8) Acinetobacter baumannii ATCC 19606 Type strain ATCC
(§9) Pseudomonas aeruginosa ATCC 27853 Type strain ATCC
(§10) Pseudomonas aeruginosa FADDI-PA070 Clinical isolate, Nation and Li labs, polymyxin resistant Monash University
(§11) Clinical isolate, Wang Hengzhuang, Pseudomonas aeruginosa PA9704 polymyxin resistant University Hospital of […]
(§12) Ptyela Clinical isolate, Ilias Karaiskos and Acinetobacter baumannii Carbapenem & Helen Giamarellou
(§13) Clinical isolate, Medicine, Hygeia
(§14) Klebsiella pneumoniae Koprana Carbapenem, & General Hospital, […]
(§15) Clinical isolate, (Instituto Dante […]
(§16) polymyxin resistant Cardiologia, São […]

A. baumannii ATCC 19606 [11] = assay type: cell-based, Acinetobacter baumannii; settings: ATCC 19606, 18 h
Method: as §1, §2, §3, §4, §5, §6, §7, §8, §9, §10, §11, §12, §13, §14, §15, §16

[12] = test system: P. aeruginosa FADDI-PA070, PmxR; assay type: cell-based, Pseudomonas aeruginosa
Method: as §1, §2, §3, §4, §5, §6, §7, §8, §9, §10, §11, §12, §13, §14, §15, §16

[13] = test system: P. aeruginosa PA9704, PmxR; assay type: cell-based, Pseudomonas aeruginosa
Method: as §1, §2, §3, §4, §5, §6, §7, §8, §9, §10, §11, §12, §13, §14, §15, §16

[14] = test system: A. baumannii CI Ptyela 100734512:2, PmxR; assay: microbe, parasite or virus in culture; assay type: cell-based, Acinetobacter baumannii
K. pneumoniae ATCC 13883 [15] = assay: microbe, parasite or virus in culture; assay type: cell-based, Klebsiella pneumoniae; settings: ATCC 13883, 18 h
[16] = test system: K. pneumoniae CI 138-16357-20362, PmxR; assay: microbe, parasite or virus in culture; assay type: cell-based, Klebsiella pneumoniae
[17] = test system: K. pneumoniae CI Koprana 100650661:1, PmxR; assay: microbe, parasite or virus in culture; assay type: cell-based, Klebsiella pneumoniae
[18] = test system: S. aureus ATCC 25923, MSSA; assay: microbe, parasite or virus in culture; assay type: cell-based, Staphylococcus aureus; settings: ATCC 25923, 18 h
HepG2 cells = assay: Cytotoxicity assay (resazurin assay); assay type: cell-based, human; settings: 4000 cells/well, 24 h incubation with compound, fluorescence 560/590
[19] = test system: primary human renal proximal tubule epithelial (hPT) cells; assay: Nephrotoxicity assay, GGT release; assay type: cell-based
From the text: Primary human renal proximal tubule epithelial (hPT) cells were isolated and used for in vitro prediction of drug-induced nephrotoxicity[63],[64],[69] by measuring the release of metabolism enzymes, LDH and GGT, as previously described.[70]

[20] = test system: panel of predominantly G-ve bacteria
[21] = test system: K. pneumoniae ATCC 700603, MDR; settings: MIC K. pneumoniae ATCC 700603, MDR(µg/mL)
[22] = test system: K. pneumoniae ATTC BAA-2146, NDM-1 pos; settings: MIC K. pneumoniae ATTC BAA-2146, NDM-1 pos (µg/mL)
P. aeruginosa ATCC 27853 [23] = settings: MIC P. aeruginosa ATCC 27853 (µg/mL)
P. aeruginosa ATCC 27853 [24] = assay: microbe, parasite or virus in culture; assay type: cell-based, Pseudomonas aeruginosa; settings: ATCC 27853, 18 h
Method: as §1, §2, §3, §4, §5, §6, §7, §8, §9, §10, §11, §12, §13, §14, §15, §16

[25] = polymyxin resistant clinical isolate, MHB, 5 × 10^5 CFU/mL, 18 h at 37 °C
[26] = carbapenem & polymyxin resistant clinical isolate, MHB, 5 × 10^5 CFU/mL, 18 h at 37 °C

SMILES	MIC (A. baumannii ATCC 19606 [1]) [µg/mL]	MIC [2] [µg/mL]	MIC (E. coli ATCC 25922 [3]) [µg/mL]	MIC (K. pneumoniae ATCC 13883 [4]) [µg/mL]	MIC [5] [µg/mL]	MIC [6] [µg/mL]	MIC [7] [µg/mL]	MIC [8] [µg/mL]	MIC [9] [µg/mL]	CC50 (HepG2) [µM]	MIC E. coli ATCC 25922 (E. coli ATCC 25922 [10]) [µg/mL]	MIC A. baumannii ATCC 19606 (A. baumannii ATCC 19606 [11]) [µg/mL]	MIC P. aeruginosa FADDI-PA070, PmxR [12, 25] [µg/mL]	MIC P. aeruginosa PA9704, PmxR [13, 25] [µg/mL]	MIC A. baumannii CI Ptyela 100734512:2, PmxR [14, 26] [µg/mL]	MIC K. pneumoniae ATCC 13883 (K. pneumoniae ATCC 13883 [15]) [µg/mL]	MIC K. pneumoniae CI 138-16357-20362, PmxR [16, 26] [µg/mL]	MIC K. pneumoniae CI Koprana 100650661:1, PmxR [17, 26] [µg/mL]	MIC S. aureus ATCC 25923, MSSA [18] [µg/mL]	HepG2 - CC50 (HepG2 cells) [µM]	further results
CCCCCCCC(=O)N[C@H](CCN)C(=O)N[C@H](C(=O)NCC(=O)N[C@H]1CCNC(=O)[C@H]([C@@H](C)O)NC(=O)[C@H](CCN)NC(=O)[C@H](CCN)NC(=O)[C@H](CC(C)C)NC(=O)[C@@H](Cc2ccccc2)NC(=O)[C@H](CCN)NC1=O)[C@@H](C)O [Compound 40] (Octanoyl-[dDab]TG[Dab][Dab][dF]L[Dab][Dab]T; lactam 4-C)	> 64	> 32	> 32	> 32	> 32	> 32	> 32	> 32	> 64	> 300	>32	>64	>32	>32	>32	>32	>32	>32	>64	>300	–
CCCCCCCC(=O)N[C@@H](CCN)C(=O)N[C@H](C(=O)NCC(=O)N[C@H]1CCNC(=O)[C@H]([C@@H](C)O)NC(=O)[C@H](CCN)NC(=O)[C@H](CCN)NC(=O)[C@H](CC(C)C)NC(=O)[C@@H](Cc2ccccc2)NC(=O)[C@H](CCN)NC1=O)[C@@H](C)O [Compound 38] (Octanoyl-[Dab]TG[Dab][Dab][dF]L[Dab][Dab]T; lactam 4-C)	–	> 32	–	–	> 32	> 32	> 32	> 32	> 64	> 300	–	–	–	–	–	–	–	–	>64	> 300	MIC P. aeruginosa FADDI-PA070, PmxR ([12]; FADDI-PA070, PmxR, 18 h): >32 µg/mL; MIC P. aeruginosa PA9704, PmxR ([13]; PA9704, PmxR, 18 h): >32 µg/mL; MIC A. baumannii CI Ptyela 100734512:2, PmxR ([14]; CI Ptyela 100734512:2, PmxR, 18 h): >32 µg/mL; MIC K. pneumoniae CI 138-16357-20362, PmxR ([16]; CI 138-16357-20362, PmxR, 18 h): >32 µg/mL; MIC K. pneumoniae CI Koprana 100650661:1, PmxR ([17]; CI Koprana 100650661:1, PmxR, 18 h): >32 µg/mL; GGT release CC50 [19]: >128 µg/mL; MIC among the reference strains ([20]; for most strains): 0.5 to 2 µg/mL
CCCCCCCC(=O)N[C@H](C(=O)NCC(=O)N[C@H]1CCNC(=O)[C@H]([C@@H](C)O)NC(=O)[C@H](CCN)NC(=O)[C@H](CCN)NC(=O)[C@H](CC(C)C)NC(=O)[C@@H](Cc2ccccc2)NC(=O)[C@H](CCN)NC1=O)[C@@H](C)O [Compound 39] (Octanoyl-TG[Dab][Dab][dF]L[Dab][Dab]T; lactam 3-C)	> 32	> 32	4 (≈ 3.82 µM)	> 32	> 32	> 32	> 32	> 32	> 32	> 300	4 (≈ 3.82 µM)	>32	>32	>32	>32	>32	>32	>32	>32	>300	MIC [21]: > 32 µg/mL; MIC [22]: > 32 µg/mL; MIC (P. aeruginosa ATCC 27853 [23]): 16 µg/mL (≈ 15.3 µM); MIC P. aeruginosa ATCC 27853 (P. aeruginosa ATCC 27853 [24]): 16 µg/mL (≈ 15.3 µM)
CCCCCCCC(=O)N[C@@H](CCN)C(=O)N[C@H](C(=O)N[C@@H](CCN)C(=O)N[C@H]1CCNC(=O)[C@H]([C@@H](C)O)NC(=O)[C@H](CCN)NC(=O)[C@H](CCNC(=O)[C@@H](N)CCC(=O)O)NC(=O)[C@H](CC(C)C)NC(=O)[C@@H](Cc2ccccc2)NC(=O)[C@H](CCN)NC1=O)[C@@H](C)O [Compound 23] (Octanoyl-[Dab]T[Dab][Dab][Dab][dF]L[Dab](Glu)[Dab]T; lactam 4-C)	–	> 32	–	–	> 32	> 32	> 32	> 32	> 32	> 300	–	–	–	–	–	–	>32	>32	–	–	MIC for most strains [20]: 1 to 8 µg/mL
CCCCCCCC(=O)N[C@@H](CCN)C(=O)N[C@H](C(=O)N[C@@H](CCN)C(=O)N[C@H]1CCNC(=O)[C@H]([C@@H](C)O)NC(=O)[C@H](CCN)NC(=O)[C@H](CCO)NC(=O)[C@H](CC(C)C)NC(=O)[C@@H](Cc2ccccc2)NC(=O)[C@H](CCN)NC1=O)[C@@H](C)O [Compound 24] (Octanoyl-[Dab]T[Dab][Dab][Dab][dF]L[hSer][Dab]T; lactam 4-C)	–	> 32	–	> 32	> 32	> 32	> 32	> 32	> 32	> 300	–	–	–	–	–	–	>32	>32	–	–	MIC for most strains [20]: 1 to 8 µg/mL
